{
  "source": "paper PMC7488503",
  "about": "(Acta Pharmaceutica Sinica. B, 2020)",
  "key": {"[1]": {"system": "HUVECs", "assay": "HUVEC tube formation assay", "assay_type": "cell-based, human", "settings": "induced by 50 ng/mL hVEGF-165; 0.5 and 5.0 μmol/L; vs. hVEGF-165 control, P < 0.01"}, "[2]": {"assay": "H&E staining of vital organs of treated mice", "assay_type": "in vivo, nude mice", "settings": "100 and 200 mg/kg, p.o., QD × 3 weeks"}, "[3]": {"target": "JAK2 (Homo sapiens, UniProt O60674)", "sequence (O60674 whole entry)": "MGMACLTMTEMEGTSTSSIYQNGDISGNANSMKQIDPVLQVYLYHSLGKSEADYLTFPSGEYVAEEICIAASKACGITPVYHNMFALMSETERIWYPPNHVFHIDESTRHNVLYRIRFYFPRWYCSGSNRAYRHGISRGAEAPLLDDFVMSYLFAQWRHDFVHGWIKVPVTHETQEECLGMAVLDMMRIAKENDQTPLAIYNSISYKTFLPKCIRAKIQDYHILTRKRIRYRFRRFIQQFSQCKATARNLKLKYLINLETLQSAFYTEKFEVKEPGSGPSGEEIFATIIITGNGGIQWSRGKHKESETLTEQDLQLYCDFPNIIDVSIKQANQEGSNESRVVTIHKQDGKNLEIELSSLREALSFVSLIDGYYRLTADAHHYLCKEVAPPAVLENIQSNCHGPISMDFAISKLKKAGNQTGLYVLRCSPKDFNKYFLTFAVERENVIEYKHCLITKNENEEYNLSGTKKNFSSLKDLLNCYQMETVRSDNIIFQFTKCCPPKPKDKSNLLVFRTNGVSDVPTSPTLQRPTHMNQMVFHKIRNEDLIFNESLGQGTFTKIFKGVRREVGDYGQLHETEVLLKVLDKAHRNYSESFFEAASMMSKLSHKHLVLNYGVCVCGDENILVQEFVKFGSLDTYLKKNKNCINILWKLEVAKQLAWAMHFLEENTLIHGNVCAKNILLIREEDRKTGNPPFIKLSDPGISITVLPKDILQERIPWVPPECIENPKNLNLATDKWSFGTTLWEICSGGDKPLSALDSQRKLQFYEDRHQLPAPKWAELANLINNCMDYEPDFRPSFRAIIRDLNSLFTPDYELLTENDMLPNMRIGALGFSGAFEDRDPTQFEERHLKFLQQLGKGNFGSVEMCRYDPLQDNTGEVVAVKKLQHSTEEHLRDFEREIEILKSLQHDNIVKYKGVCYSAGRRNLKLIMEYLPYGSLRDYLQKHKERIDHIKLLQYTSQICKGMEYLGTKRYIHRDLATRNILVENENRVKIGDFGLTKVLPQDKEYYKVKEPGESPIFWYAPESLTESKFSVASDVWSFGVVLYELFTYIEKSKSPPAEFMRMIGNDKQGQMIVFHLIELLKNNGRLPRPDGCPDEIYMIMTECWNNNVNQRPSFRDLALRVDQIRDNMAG", "assay": "Z′-LYTE kinase inhibition assay"}, "[4]": {"system": "phosphorylation of PDGFRβ and ERK", "assay": "Western blot, PDGF/PDGFRβ/ERK signalling in HBVPs", "assay_type": "cell-based, human", "settings": "0.5 and 5.0 μmol/L; induced by 50 ng/mL PDGF-BB in HBVPs"}, "[5]": {"assay": "Pharmacokinetic study in rats", "assay_type": "in vivo", "settings": "both, Sprague-Dawley, rat, plasma"}, "[6]": {"system": "HBVPs", "assay": "PDGF-BB-induced HBVPs proliferation", "assay_type": "cell-based", "settings": "Homo sapiens, 48 h, read-out: IC50 HBVPs"}},
  "data": [
    {"smiles": "COc1cc2nccc(Oc3ccc(NC(=S)NC4CC4)c(Cl)c3F)c2cc1C(N)=O", "note": "[WXFL-152, 4-(3-Chloro-4-(3-cyclopropylthioureido)-2-fluorophenoxy)-7-methoxyquinoline-6-carboxamide]", "values": [
      {"measurement": "tube formation of HUVECs", "setting": "[1]", "value": "significantly suppressed"},
      {"measurement": "pathologic changes in heart, liver, spleen, lung and kidney (H&E)", "setting": "[2]", "value": "No significant pathologic changes"},
      {"measurement": "IC50", "setting": "[3]", "value": "> 10000", "unit": "nM"},
      {"measurement": "phosphorylation of PDGFRβ and ERK", "setting": "[4]", "value": "significantly blocked"},
      {"measurement": "AUC(0-inf)", "setting": "[5]; iv, 3 mg/kg", "value": "35.2 ± 8.3", "unit": "µM·h"},
      {"measurement": "AUC(0-t)", "setting": "[5]; iv, 3 mg/kg", "value": "35 ± 8.2", "unit": "µM·h"},
      {"measurement": "Cmax", "setting": "[5]; iv, 3 mg/kg", "value": "40.4 ± 3", "unit": "µM"},
      {"measurement": "Vd", "setting": "[5]; iv, 3 mg/kg", "value": "0.26 ± 0.05", "unit": "L/kg"},
      {"measurement": "clearance", "setting": "[5]; iv, 3 mg/kg", "value": "3.24 ± 0.81", "unit": "mL/min/kg"},
      {"measurement": "half-life", "setting": "[5]; iv, 3 mg/kg", "value": "1.18 ± 0.18", "unit": "h"},
      {"measurement": "AUC(0-inf)", "setting": "[5]; po, 15 mg/kg", "value": "77.7 ± 39.6", "unit": "µM·h"},
      {"measurement": "AUC(0-t)", "setting": "[5]; po, 15 mg/kg", "value": "74.6 ± 36.3", "unit": "µM·h"},
      {"measurement": "Cmax", "setting": "[5]; po, 15 mg/kg", "value": "26 ± 13.3", "unit": "µM"},
      {"measurement": "Tmax", "setting": "[5]; po, 15 mg/kg", "value": "0.58 ± 0.2", "unit": "h"},
      {"measurement": "bioavailability", "setting": "[5]; po, 15 mg/kg", "value": 42, "unit": "%"},
      {"measurement": "half-life", "setting": "[5]; po, 15 mg/kg", "value": "2.21 ± 0.39", "unit": "h"},
      {"measurement": "AUC(0-inf)", "setting": "[5]; po, 50 mg/kg", "value": "110 ± 84.9", "unit": "µM·h"},
      {"measurement": "AUC(0-t)", "setting": "[5]; po, 50 mg/kg", "value": "110 ± 84.9", "unit": "µM·h"},
      {"measurement": "Cmax", "setting": "[5]; po, 50 mg/kg", "value": "32.3 ± 11.3", "unit": "µM"},
      {"measurement": "Tmax", "setting": "[5]; po, 50 mg/kg", "value": "0.54 ± 0.25", "unit": "h"},
      {"measurement": "bioavailability", "setting": "[5]; po, 50 mg/kg", "value": 18.7, "unit": "%"},
      {"measurement": "half-life", "setting": "[5]; po, 50 mg/kg", "value": "2 ± 0.55", "unit": "h"},
      {"measurement": "AUC(0-inf)", "setting": "[5]; po, 50 mg/kg/day", "value": "151 ± 63.5", "unit": "µM·h"},
      {"measurement": "AUC(0-t)", "setting": "[5]; po, 50 mg/kg/day", "value": "160 ± 60.3", "unit": "µM·h"},
      {"measurement": "Cmax at 7 days", "setting": "[5]; po, 50 mg/kg/day", "value": "46.5 ± 13.9", "unit": "µM"},
      {"measurement": "Tmax at 7 days", "setting": "[5]; po, 50 mg/kg/day", "value": "1.42 ± 0.67", "unit": "h"},
      {"measurement": "half-life at 7 days", "setting": "[5]; po, 50 mg/kg/day", "value": "2.17 ± 0.55", "unit": "h"},
      {"measurement": "AUC(0-inf)", "setting": "[5]; po, 150 mg/kg", "value": "233 ± 158", "unit": "µM·h"},
      {"measurement": "AUC(0-t)", "setting": "[5]; po, 150 mg/kg", "value": "232 ± 158", "unit": "µM·h"},
      {"measurement": "Cmax", "setting": "[5]; po, 150 mg/kg", "value": "48.7 ± 9.5", "unit": "µM"},
      {"measurement": "Tmax", "setting": "[5]; po, 150 mg/kg", "value": "1.58 ± 2.26", "unit": "h"},
      {"measurement": "bioavailability", "setting": "[5]; po, 150 mg/kg", "value": 13, "unit": "%"},
      {"measurement": "half-life", "setting": "[5]; po, 150 mg/kg", "value": "2.54 ± 0.8", "unit": "h"},
      {"measurement": "IC50", "setting": "[6]", "value": 1940, "unit": "nM"}
    ]}
  ]
}
